Consider two compounds from article PMC4974772, “In vitro anti-Leishmania activity of tetracyclic iridoids from Morinda lucida, benth” (Tropical Medicine and Health, 2016).

By IC50 is commonly meant the point on the concentration scale where inhibition reaches its midpoint.

For test [1], the system named is Leishmania hertigi promastigotes. Kind of test: In vitro viacount assay (Guava viacount, FACS) on L. hertigi promastigotes. In kind it is cell-based. The procedure: (§1) The field strain of L. enriettii (010) promastigotes, which had been isolated in Ghana, and the lab strain, Leishmania hertigi promastigotes, were used in this study because of their availability. Parasites were cultured in vitro according to conditions established previously. Log phase of parasites (1 × 10^6 parasites/ml) was diluted to a parasitemia of 3 × 10^5 parasites/ml with M199 medium and used for the drug assay. Estimation of parasitemia was done with the Neubauer’s counting chamber.
Leishmania promastigote forms of L. hertigi parasites were seeded and incubated in the presence or absence of (50–0.78 μM) compounds (dissolved in DMSO) for 48 h, after which the Guava reagent for viacount (Millipore) was added to the culture in the ratio of 1:1 and incubated for 30 min. Analysis was performed using the Millipore guava easyCyte 5HT (USA) according to the manufacture’s instruction.
(§2) The aim of the study was to investigate the anti-Leishmania properties of the three novel tetracyclic iridoid compounds previously found to have anti-trypanosome activity. In the determination of the effect of Molucidin, ML-2-3, and ML-F52 on L. hertigi and 010, parasites were challenged with 0–50 μM of each compound for 48 and 96 h to determine MIC and the concentration of compounds that inhibited parasite growth by 50 % (IC50) by microscopy and fluorescence-activated cell sorting (FACS) analysis, respectively. […] All three compounds share same side chains, iridoid tetracyclic skeleton, but differ in their functional group region. Molucidin and ML-F52 are esters while ML-2-3 is carboxylic acid. The functional groups may play a key role in the activity of the compounds against Leishmania.

Test [2] has as its system Chang Liver (normal liver). Kind of test: Cytotoxicity on normal liver Chang Liver. In kind it is cell-based. The following applies: 48 h. The procedure: (§3) Table 2 Selective index of compounds tested for anti-Leishmania activity | column: IC50 (μM), 48 h / ML-2-2; IC50 (μM), 48 h / ML-2-3; IC50 (μM), 48 h / ML-F52; SI / ML-2-2; SI / ML-2-3; SI / ML-F52
The subject of test [3] is Hs-888Lu (normal lung). As to the kind of experiment: Cytotoxicity on normal lung Hs-888Lu. To be noted: 48 h. In kind it is cell-based. Here is the method:
as §3

Test [4] has as its system HF-19 (normal lung fibroblasts). As to the kind of experiment: Cytotoxicity on normal lung fibroblasts HF-19. In kind it is cell-based. To be noted: 48 h. The procedure:
as §3

In test [5] the test system is Leishmania 010 (field strain of L. enriettii) promastigotes. Kind of test: MIC by microscopy on Leishmania field strain 010 promastigotes. In kind it is cell-based, L. enriettii (010). The procedure: as §1
Promastigotes of Leishmania 010 were seeded and incubated in the presence or absence of (50–0.78 μM) compounds for 96 h and the minimum inhibitory concentration (MIC) of the compounds determined by microscopy.
as §2, with “Molucidin and ML-F52 are esters while ML-2-3 is carboxylic acid. The functional groups may play a key role in the activity of the compounds against Leishmania.” left out

The test system of test [6] is NBIRGB (normal skin fibroblasts). Kind of test: Cytotoxicity on normal skin fibroblasts NBIRGB. In kind it is cell-based. The following applies: 48 h. Here is the method:
as §3

The subject of test [7] is L. hertigi parasites. As to the kind of experiment: Fluor-microscopy analysis using DAPI (nucleus/kinetoplast count, morphology). In kind it is cell-based, Leishmania hertigi. The following applies: 4 μM, 48 h, DAPI staining. The procedure:
Parasites were incubated for 24 h under appropriate conditions (25 °C) with appropriate concentrations of active compounds, Molucidin and ML-F52. Parasites were then harvested and fixed with 4 % paraformaldehyde at room temperature for 5 min. Washing steps were carried out with PBS and PBST (0.1 % Triton X 100 in PBS) at room temperature for 5 min and 15 min, respectively. The parasites were stained with 4’,6-diamidino-2’-phenylindole dihydrochloride (DAPI) (5 μg/ml DAPI in PBS) for 10 min. After washing steps as above, the slides were mounted using parmafluor mounting reagent and covered with cover slips. The slides were observed under the Olympus fluorescent microscope (Olympus BX53) to detect any phenotypic changes in L. hertigi parasites.
To investigate the effect of Molucidin and ML-F52 on the morphology and cell division of L. hertigi, we performed fluor-microscope observation with DAPI staining after incubation of parasite with 4 μM of Molucidin and ML-F52 for 48 h. […] The inhibition of cytokinesis might imply the inability of cells to replicate in the mammalian host and increase the parasite burden. This may prevent the parasites from over running the host-immune and may give the host the edge to clear the infection. […]

“And” between values parts separate entries of the source, which are not always exact repeats. Identical values can stand only once. Like-named read-outs stand apart in the source and are kept apart here.

As for `COC(=O)C1=CO[C@@H]2O[C@H]3/C(=C\c4ccc(O)c(OC)c4)C(=O)O[C@]34C=C[C@H]1[C@H]24` [Molucidin], the “anti-Leishmania activity” value is “had anti-Leishmania activity” in test [1] (L. hertigi, 0–50 μM, 48 h) and “had anti-Leishmania activity” in test [5] (010 field strain, 0–50 μM, 96 h). The IC50 was 4.24 µM in test [1] (promastigotes, 48 h, 50–0.78 μM, Guava viacount FACS, read-out: IC50 after 48 h (L. hertigi)); 9.34 µM in test [2]; 9.29 µM in test [3]; 14.2 µM in test [4]; 7.11 µM in test [6]. Also, the “MIC after 96 h (010)” value in test [5] (promastigotes, 50–0.78 μM, microscopy) is 4.167 µM and 4.17 µM. Moreover, in test [7], the “effect on parasite morphology” value is on record as “induced short stumpy form parasite cells”. The “2N/2K cells (two sets of nucleus and kinetoplast)” value in test [7] (microscopic counting, DMSO-treated cells 10 % 2N/2K) is 30–40%.

For `C[C@@H]1[C@H](O)[C@@H](C)/C=C/C=C/C=C/C=C/C=C/C=C/C=C/[C@H](O[C@@H]2O[C@H](C)[C@@H](O)[C@H](N)[C@@H]2O)C[C@@H]2O[C@](O)(C[C@@H](O)C[C@@H](O)[C@H](O)CC[C@@H](O)C[C@@H](O)CC(=O)O[C@H]1C)C[C@H](O)[C@H]2C(=O)O` [amphotericin B, reference compound], the IC50 in test [1] (Leishmania hertigi, positive control, strain not stated in footnote, read-out: IC50 of amphotericin B (positive control)) came out at 0.1 µg/mL.
